Measurements from US8592370B2, “Combination of insulin with triazine derivatives” (Poxel S.A.S., priority 2008, dated 2013).

Legend:
[1] = system: hyperglycemic and hypoinsulinemic Type 1 rat models (Streptozotocin); assay: Fasting plasma glucose in STZ Type 1 rat model, insulin pellets with or without EMD; assay type: in vivo
Description: (§1) The study was performed in hyperglycemic and hypoinsulinemic Type 1 rat models obtained by injection of high dose of Streptozotocin (STZ). Male Wistar rats (Charles River) were treated with STZ at 62.5 mg/kg IP. Rats were screened for baseline glucose levels three days after STZ injection. The animals with glucose levels below 35-40 mmol/l were excluded from this study. After selection, pellets of insulin were subcutaneously implanted (1+½ implants) at day 3. The release rate for each implant was 2 U per 24 h. In these experimental conditions each rat was infused with 3 U per 24 h of insulin for 40 days approximately (Limplant LINSHIN CANADA). 5,6-dihydro-4-dimethylamino-2-imino-6-methyl-1,3,5-triazine was orally administered at two doses, 75 and 150 mg/kg b.i.d., 10 days after induction of diabetes. Further experimental details are known to the skilled artisan, e.g. by the disclosure of WO 2003/092726, and can be easily modified as a matter of routine.

[2] = system: hyperglycemic and hypoinsulinemic Type 1 rat models (Streptozotocin); assay: Oral glucose tolerance test (OGTT), plasma glucose after 36 days of treatment; assay type: in vivo; settings: insulin alone
Description: as §1
The determination how quickly administered glucose is cleared form the blood was conducted by means of a glucose tolerance test. The glucose was orally given; so the common test was technically an oral glucose tolerance test (OGTT), which is well-known to the skilled artisan. The laboratory animal was fasting for 18 hours before it was administered a glucose solution. Blood was drawn at intervals (cf. Table 3) for measurement of glucose (blood sugar), and additionally insulin levels were measured to detect the degree of IR or deficiency, respectively. For diabetes screening, the most important sample is the 2 hour sample, whose blood sugar value is enhanced at mammals with diminished insulin secretion or IR.

Molecule	Fasting plasma glucose ([1]; EMD 75 mg/kg b.i.d. oral + insulin pellets 3 U per 24 h, day 36) [mmol/L]	Fasting plasma glucose ([1]; EMD 150 mg/kg b.i.d. oral + insulin pellets 3 U per 24 h, day 36) [mmol/L]	OGTT plasma glucose ([2]; 0 min) [mmol/L]	OGTT plasma glucose ([2]; 10 min) [mmol/L]	OGTT plasma glucose ([2]; 20 min) [mmol/L]	OGTT plasma glucose ([2]; 30 min) [mmol/L]	OGTT plasma glucose ([2]; 45 min) [mmol/L]	OGTT plasma glucose ([2]; 60 min) [mmol/L]	OGTT plasma glucose ([2]; 90 min) [mmol/L]	OGTT plasma glucose ([2]; 120 min) [mmol/L]	Fasting plasma glucose ([1]; insulin pellets 3 U per 24 h alone, day 0 (before treatment)) [mmol/L]	Fasting plasma glucose ([1]; insulin pellets 3 U per 24 h alone, day 8) [mmol/L]	Fasting plasma glucose ([1]; insulin pellets 3 U per 24 h alone, day 15) [mmol/L]	Fasting plasma glucose ([1]; insulin pellets 3 U per 24 h alone, day 22) [mmol/L]	Fasting plasma glucose ([1]; insulin pellets 3 U per 24 h alone, day 36) [mmol/L]	Fasting plasma glucose ([1]; insulin pellets 3 U per 24 h alone, day 36, listed as insulin pellets) [mmol/L]
CC1NC(=N)N=C(N(C)C)N1 (stereo not shown) [EMD, 5,6-dihydro-4-dimethylamino-2-imino-6-methyl-1,3,5-triazine]	18.86 ± 2.77	14.85 ± 2.03	–	–	–	–	–	–	–	–	–	–	–	–	–	–
control + insulin: subcutaneously implanted insulin pellets releasing 3 U per 24 h (Limplant LINSHIN CANADA); insulin alone group	–	–	21.46	22.73	26.98	27.83	28.04	25.59	20.35	16.91	33.20	17.22	11.25	16.66	21.46	21.46 ± 3.1
